Converted amounts (≈) assume the structure as drawn.
Tests used:
Format in all cases: in vivo, Pepper mild mottle virus (PMMoV)
[1] = system: PMMoV; assay: Antiviral activity assay against PMMoV, curative activity; parameters: Curative activity: concentration or dose not given beside the values; conditions: against PMMoV, average of three replicates, ± standard deviation; for EC50: Pepper mild mottle virus, read-out: EC50 of curative activity
Method: (§1) Virions were isolated and extracted from leaves of N. benthamiana infected with PMMoV referring to the method recorded in the literature. And the inhibiting activities of C1–C38 against PMMoV were assessed with reference to the literature as well [26, 34].

[2] = system: PMMoV; assay: Antiviral activity assay against PMMoV, inactivating activity; conditions: against PMMoV, average of three replicates, ± standard deviation; for pest or weed control at 500 µg/mL / EC50: Pepper mild mottle virus; for pest or weed control at 500 µg/mL: read-out: Inactivating activity; for EC50: read-out: EC50 of inactivating activity; for pest or weed control at 500 µg/mL / Inactivating activity: at 500 µg/mL
Method: as §1

[3] = system: PMMoV; assay: Antiviral activity assay against PMMoV, protective activity; parameters: Protective activity: concentration or dose not given beside the values; conditions: against PMMoV, average of three replicates, ± standard deviation; for EC50: Pepper mild mottle virus, read-out: EC50 of protective activity
Method: as §1

| SMILES | EC50 [1] [µg/mL] | Curative activity [1] [%] | pest or weed control at 500 µg/mL [2] [%] | EC50 [2] [µg/mL] | EC50 [3] [µg/mL] | Protective activity [3] [%] | Inactivating activity [2] [%] |
| --- | --- | --- | --- | --- | --- | --- | --- |
| CC(=O)OCC1OC(n2cnc3c(N4CCOCC4)nc(F)nc32)C(NS(=O)(=O)c2ccc([N+](=O)[O-])cc2)C(OC(C)=O)C1OC(C)=O (centres unmarked) [C3] | 11.5 ± 4.4 (≈ 16.5 µM) | 67.0 ± 3.6 | 68.9 ± 4.9 | 198 ± 16.1 (≈ 285 µM) | 388 ± 16.6 (≈ 557 µM) | 57.5 ± 4.3 | – |
| CC(=O)OCC1OC(n2cnc3c(N4CCOCC4)nc(Cl)nc32)C(NS(=O)(=O)c2ccc([N+](=O)[O-])cc2)C(OC(C)=O)C1OC(C)=O (centres unmarked) [C4] | 219 ± 9 (≈ 308 µM) | 61.2 ± 3.7 | 64.1 ± 3.5 | 141 ± 12.1 (≈ 198 µM) | 475 ± 15.8 (≈ 667 µM) | 52.6 ± 2.0 | – |
| CC(=O)OCC1OC(n2cnc3c(N4CCOCC4)ncnc32)C(NS(=O)(=O)c2cccc([N+](=O)[O-])c2)C(OC(C)=O)C1OC(C)=O (centres unmarked) [C5] | 63.8 ± 5.3 (≈ 94.1 µM) | 60.3 ± 2.5 | 47.5 ± 1.4 | 622 ± 14.7 (≈ 918 µM) | 2280 ± 24.8 (≈ 3370 µM) | 43.3 ± 2.3 | – |
| CC(=O)OCC1OC(n2cnc3c(N4CCOCC4)ncnc32)C(NS(=O)(=O)c2ccccc2[N+](=O)[O-])C(OC(C)=O)C1OC(C)=O (centres unmarked) [C6] | 132 ± 9.4 (≈ 194 µM) | 67.0 ± 4.9 | 60.8 ± 1.9 | 182 ± 7.8 (≈ 268 µM) | 358 ± 12.3 (≈ 528 µM) | 52.0 ± 2.3 | – |
| CC(=O)OCC1OC(n2cnc3c(N4CCOCC4)ncnc32)C(NS(=O)(=O)c2ccc(C#N)cc2)C(OC(C)=O)C1OC(C)=O (centres unmarked) [C7] | 281 ± 10.3 (≈ 427 µM) | 55.8 ± 1.3 | 36.6 ± 3.2 | 2415 ± 17.2 (≈ 3670 µM) | 793 ± 17.1 (≈ 1210 µM) | 44.7 ± 1.4 | – |
| CC(=O)OCC1OC(n2cnc3c(N4CCOCC4)nc(Cl)nc32)C(NS(=O)(=O)c2ccc(C#N)cc2)C(OC(C)=O)C1OC(C)=O (centres unmarked) [C8] | 64.6 ± 4.6 (≈ 93.3 µM) | 69.6 ± 1.3 | 56.6 ± 4 | 222 ± 4.8 (≈ 321 µM) | 1040 ± 19.4 (≈ 1510 µM) | 44.3 ± 1.8 | – |
| CC(=O)OCC1OC(n2cnc3c(N4CCOCC4)ncnc32)C(NS(=O)(=O)c2ccc(Cl)cc2)C(OC(C)=O)C1OC(C)=O (centres unmarked) [C9] | 33.3 ± 1.2 (≈ 49.9 µM) | 70.9 ± 4.9 | 65.8 ± 3.9 | 103 ± 9.1 (≈ 155 µM) | 267 ± 8.6 (≈ 401 µM) | 58.9 ± 4.0 | – |
| CC(=O)OCC1OC(n2cnc3c(N4CCOCC4)ncnc32)C(NS(=O)(=O)c2cccc(Cl)c2)C(OC(C)=O)C1OC(C)=O (centres unmarked) [C10] | 22.2 ± 3.4 (≈ 33.3 µM) | 62.1 ± 5.8 | 60.5 | 16.3 ± 1.9 (≈ 24.4 µM) | 17.8 ± 2.1 (≈ 26.7 µM) | 67.0 ± 4.3 | 60.5 ± 1.8 |
| CC(=O)OCC1OC(n2cnc3c(N4CCOCC4)nc(N)nc32)C(NS(=O)(=O)c2cccc(Cl)c2)C(OC(C)=O)C1OC(C)=O (centres unmarked) [C11] | 372 ± 18.4 (≈ 545 µM) | 51.8 ± 1.0 | 51.8 ± 2.1 | 497.1 ± 3 (≈ 729 µM) | 225 ± 11.9 (≈ 329 µM) | 58.8 ± 3.1 | – |
| COc1ccc(S(=O)(=O)NC2C(OC(C)=O)C(OC(C)=O)C(COC(C)=O)OC2n2cnc3c(N4CCOCC4)ncnc32)cc1 (centres unmarked) [C12] | 53 ± 2.1 (≈ 80 µM) | 63.5 ± 2.6 | 71.5 ± 5 | 43.1 ± 1.1 (≈ 65 µM) | 134 ± 7.4 (≈ 203 µM) | 65.6 ± 4.7 | – |
| COc1ccc(S(=O)(=O)NC2C(OC(C)=O)C(OC(C)=O)C(COC(C)=O)OC2n2cnc3c(N4CCOCC4)nc(F)nc32)cc1 (centres unmarked) [C13] | 20.9 ± 3 (≈ 30.7 µM) | 72.5 ± 2.6 | 47.3 ± 2.7 | 458.1 ± 3.3 (≈ 673 µM) | 596 ± 10.9 (≈ 876 µM) | 46.5 ± 3.4 | – |
| COc1ccc(S(=O)(=O)NC2C(OC(C)=O)C(OC(C)=O)C(COC(C)=O)OC2n2cnc3c(N4CCOCC4)nc(N)nc32)cc1 (centres unmarked) [C14] | 100 ± 8.9 (≈ 148 µM) | 53.6 ± 2.4 | 38.5 ± 2 | 4507 ± 24.2 (≈ 6650 µM) | 926 ± 11.4 (≈ 1370 µM) | 38.3 ± 4.4 | – |
| CC(=O)OCC1OC(n2cnc3c(N4CCOCC4)ncnc32)C(NS(=O)(=O)c2ccc(Br)cc2)C(OC(C)=O)C1OC(C)=O (centres unmarked) [C15] | 61 ± 5.4 (≈ 85.7 µM) | 65.6 ± 3.4 | 47.7 ± 0.69 | 593 ± 13.7 (≈ 833 µM) | 103 ± 6.4 (≈ 145 µM) | 62.5 ± 3.3 | – |
| CC(=O)OCC1OC(n2cnc3c(N4CCOCC4)ncnc32)C(NS(=O)(=O)c2cccc(Br)c2)C(OC(C)=O)C1OC(C)=O (centres unmarked) [C16] | 48.5 ± 3.1 (≈ 68.2 µM) | 58.9 ± 4.2 | 55.9 ± 1.5 | 171 ± 9.6 (≈ 241 µM) | 664 ± 12.4 (≈ 933 µM) | 45.3 ± 2.5 | – |
| CC(=O)OCC1OC(n2cnc3c(N4CCOCC4)ncnc32)C(NS(=O)(=O)c2ccccc2Br)C(OC(C)=O)C1OC(C)=O (centres unmarked) [C17] | 16.1 ± 2.7 (≈ 22.6 µM) | 70.5 ± 3.8 | 59.9 ± 4 | 84 ± 2.8 (≈ 118 µM) | 140 ± 9.5 (≈ 197 µM) | 61.0 ± 5.3 | – |
| CC(=O)OCC1OC(n2cnc3c(N4CCOCC4)ncnc32)C(NS(=O)(=O)c2ccccc2)C(OC(C)=O)C1OC(C)=O (centres unmarked) [C18] | 24.7 ± 1.3 (≈ 39 µM) | 63.5 ± 2.5 | 61.3 ± 2.8 | 134 ± 8.5 (≈ 212 µM) | 994 ± 11.2 (≈ 1570 µM) | 41.9 ± 2.9 | – |
| CC(=O)OCC1OC(n2cnc3c(N4CCOCC4)nc(F)nc32)C(NS(=O)(=O)c2ccccc2)C(OC(C)=O)C1OC(C)=O (centres unmarked) [C19] | 36.7 ± 3.7 (≈ 56.4 µM) | 69.5 ± 4.7 | 69.7 ± 1.9 | 25.5 ± 4 (≈ 39.2 µM) | 159 ± 11.8 (≈ 245 µM) | 59.8 ± 3.6 | – |
| CC(=O)OCC1OC(n2cnc3c(N4CCOCC4)nc(Cl)nc32)C(NS(=O)(=O)c2ccccc2)C(OC(C)=O)C1OC(C)=O (centres unmarked) [C20] | 30.1 ± 3.5 (≈ 45.1 µM) | 74.8 ± 4.8 | 72 ± 4.2 | 28.5 ± 4.2 (≈ 42.7 µM) | 292 ± 17.6 (≈ 438 µM) | 54.8 ± 2.8 | – |
| CC(=O)OCC1OC(n2cnc3c(N4CCOCC4)ncnc32)C(NS(=O)(=O)c2c(C)cc(C)cc2C)C(OC(C)=O)C1OC(C)=O (centres unmarked) [C21] | 61.6 ± 5.3 (≈ 91.3 µM) | 66.9 ± 1.8 | 68.7 ± 4.5 | 83.2 ± 3.7 (≈ 123 µM) | 74 ± 5.1 (≈ 110 µM) | 60.7 ± 2.5 | – |
| CC(=O)OCC1OC(n2cnc3c(N4CCOCC4)nc(N)nc32)C(NS(=O)(=O)c2c(C)cc(C)cc2C)C(OC(C)=O)C1OC(C)=O (centres unmarked) [C22] | 26.2 ± 1.3 (≈ 38 µM) | 67.6 ± 1.9 | 61.3 | 13.7 ± 1.6 (≈ 19.9 µM) | 38 ± 3.5 (≈ 55.1 µM) | 61.2 ± 1.6 | 61.3 ± 4.5 |
| CC(=O)OCC1OC(n2cnc3c(N4CCOCC4)nc(Cl)nc32)C(NS(=O)(=O)c2c(C)cc(C)cc2C)C(OC(C)=O)C1OC(C)=O (centres unmarked) [C23] | 11.3 ± 3.3 (≈ 15.9 µM) | 69.0 ± 3.5 | 55.4 ± 2.6 | 240 ± 17.8 (≈ 338 µM) | 145 ± 7.7 (≈ 204 µM) | 57.4 ± 1.6 | – |
| CC(=O)OCC1OC(n2cnc3c(N4CCOCC4)ncnc32)C(NS(=O)(=O)c2ccc(C(F)(F)F)cc2)C(OC(C)=O)C1OC(C)=O (centres unmarked) [C26] | 45.1 ± 4.7 (≈ 64.4 µM) | 67.6 ± 2.5 | 45.5 ± 2.6 | 632 ± 15.2 (≈ 902 µM) | 788 ± 12.8 (≈ 1120 µM) | 44.5 ± 1.6 | – |
| CC(=O)OCC1OC(n2cnc3c(N4CCOCC4)nc(Cl)nc32)C(NS(=O)(=O)c2ccc(C(F)(F)F)cc2)C(OC(C)=O)C1OC(C)=O (centres unmarked) [C27] | 51.1 ± 3.6 (≈ 69.5 µM) | 69.9 ± 3.6 | 62.4 ± 4.7 | 184 ± 10 (≈ 251 µM) | 534 ± 14.9 (≈ 726 µM) | 45.0 ± 3.4 | – |
